Test results reported in patent publication US9796674B2, “Benzyl urea derivatives for activating TGF-beta signaling” (THE BOARD OF TRUSTEES OF THE LELAND STANFORD JUNIOR …, priority 2013, dated 2017).
Entries after “also recorded” stand apart in the source; their conditions may differ.

Tests used:
TGF-β signaling [1] = assay: F11 SBE-SEAP reporter cell assay; assay type: cell-based, mouse; conditions: F11 SBE-SEAP reporter cell line
Text: In another aspect, methods are provided for treating or preventing the progression of a disease or condition characterized by a reduction in TGF-β signaling. One category of such diseases or conditions is neurodegenerative disorders. One example is Alzheimer's disease (AD), or another disease characterized by the deposition of amyloid plaques and overall accumulation of Aβ in the brain. Experiments performed in support of the present compositions and methods are described, below. • TGF-β reporter gene and cells for screening compounds: An in vitro screening method was developed to identify small-molecule chemical compounds with TGF-β1-like bioactivity. The method utilized a fusion gene consisting of the luciferase or secreted alkaline phosphatase (SEAP) reporter gene under control of the TGF-β responsive Smad-binding element (SBE) minimal promoter sequence, as shown in FIGS. 1A and 1B. To screen for compounds that mimic TGF-β bioactivity, reporter cell lines were prepared by stably-integrating SBE-SEAP into C6 astrocytoma cells, a primary astrocyte line derived from tgfb1^−/− mice, a mouse embryonic fibroblast cell line derived from tgfb1^−/− mice (MFB-F11), and NG108-15 neuroblastoma cells. Such cell lines remained stable for at least 20 passages. Use of a tgfb1^−/− genetic background avoids interference by the […] tgfb1 gene. • Initial compound screening: A library with 5,000 chemically diverse small molecules (average Mr 200 Da) was obtained from Comgenex LLC (South San Francisco, Calif.). […]
The compounds were all tested in the F11 cell activity assay (fibroblast stably transfected with SBE-SEAP construct). […] Compounds with promising activity were evaluated using tier 1 assays such as permeability assays to measure blood-brain barrier transport, metabolic stability assays, and solubility assays. […]

TGF-β signaling [2] = assay: Bioluminescence in SBE-luc reporter mice; assay type: in vivo, mouse; conditions: brain/CNS bioluminescence
Protocol: The most promising compounds out of these screens were tested for their neuroprotective potential in B103 rat neuroblastoma cells and primary mouse neurons derived from E16 forebrains. Compounds were also tested for their capacity to reduce varicosities and tortuosity in primary mouse neurons. Accordingly, novel neuroprotectant small molecules have been identified that are as potent or better than TGF-β. Importantly, they fulfilled the critical neuroprotective properties in neuronal cell lines and primary hippocampal mouse neurons. • Compounds based on the 11H core: The present compositions and methods include salts of the active compounds and formulations, in particular pharmaceutically acceptable compositions for administration to an animal or human subject and containing active compounds. 129 analogs or derivatives of 11H were screened by a cell-based assay for their ability to increase TGF-β activity, i.e. to act as a TGF agonist. In particular, one compound (a) designated as SRI-011381 (381) was identified as especially advantageous, although active derivatives thereof are contemplated and have been identified. • Effects of TGF-β analogs in vitro: Some of the small-molecule TGF-β agonist compounds were tested for neuroprotection activity and toxicity in vitro (cell culture). In addition, the mechanism of action of the agonists was explored using cells with different genetic backgrounds with respect to protein of the […] signaling pathway. • Animal studies: Transgenic mice harboring the SBE-luc reporter gene were generated and used to test the derivatives of compound 11H in vivo. These “reporter mice” mice express SBE-luc (i.e., “the transgene”) in all cells of the body. Intraperitoneal injection of luciferin into SBE-luc-expressing mice produces bioluminescence generated by luciferase and photons penetrating the skull can be imaged using sensitive camera systems.
SBE-luciferase transgenic mice: Two-month old SBE-luciferase transgenic mice receive different concentrations of a test compound either s.q., ip., or orally by gavage. […] Following administration of the test or control compounds, mice are injected with luciferin ip. At, for example, 2, 8, and 16 hours following injection of luciferin, the mice are imaged to detect bioluminescence as described above. Brains may be harvested 16 hours following test compound injection, and may be divided sagittally. For example, one hemi-brain can be homogenized in luciferase assay buffer for measurement of reporter gene activation, while the other hemi-brain can be frozen at −70° C. for future study, including sectioning into individual brain regions

female FVB mice = assay: Dose escalation and 14-day MTD study in female FVB mice; assay type: in vivo; conditions: for hematology parameters / survival: repeat dose study; for clinical chemistry: all treatment groups; for single-dose level at which all animals survived to 48 h: female, FVB, mouse, in vivo; for survival: high dose 75 mg/kg
Protocol: In Vivo Range Finding Toxicity Studies in Mice and Rats: Dose escalation and 14-day MTD study of SRI-011381 and SRI-011382 in female FVB mice: The objectives of this study were to determine the maximum tolerated dose (MTD) and a no observable adverse effect level (NOAEL) in female FVB mice following a daily oral dose administration for 14 consecutive days. An initial dose escalation was performed with intraperitoneal (ip), oral (po), and intravenous (iv) dose routes for a single-dose MTD of SRI-011381 and SRI-011382.
Subsequently, three dose levels (10, 30, and 75 mg/kg) and a vehicle control group were used in the 14-day oral dose administration to determine the MTD and NOAEL based on changes in bodyweight, clinical observations, serum chemistry, hematology and gross organ physiology in 5 female mice per treatment group.
The objectives of this study were to determine maximum tolerated dose (MTD) and a no observable adverse effect level (NOAEL) in female FVB mice following a daily oral dose administration for 14 consecutive days. After a dose escalation single dose study with doses up to 400 mg/kg, three dose levels were selected for the repeat dose study, 10, 30 and 75 mg/kg, administered […]. The MTD is the maximum dose administered that results in less than 10% body weight loss compared to controls and no other dose limiting adverse effects (e.g. clinical pathology).

| Structure (SMILES) | activity in the reporter cell assay (TGF-β signaling [1]) | activity in the reporter cell assay (TGF-β signaling [1]; listed as 381) | activation of TGF-β signaling in SBE-luc reporter mice (TGF-β signaling [2]) | activation of TGF-β signaling in SBE-luc reporter mice (TGF-β signaling [2]; listed as 381) | hematology parameters (female FVB mice; 10 mg/kg) | absolute WBCs (female FVB mice; 30 mg/kg, 14 days) | hematology parameters (female FVB mice; 30 mg/kg) | hematology parameters (RBCs, hematocrit, hemoglobin) (female FVB mice; 75 mg/kg (high dose), 14 days) | clinical signs (female FVB mice; 75 mg/kg, 14 days) | neutrophils (% and absolute) (female FVB mice; 75 mg/kg, 14 days) | reticulocytes (female FVB mice; 75 mg/kg, 14 days) | body weight or body weight change (female FVB mice; 10, 30, 75 mg/kg, 14 days, relative to controls) | lymphocytes (% and absolute) (female FVB mice; 30 and 75 mg/kg, 14 days) | clinical chemistry (female FVB mice; 14 days) | single-dose level at which all animals survived to 48 h (female FVB mice; ip) | single-dose level at which all animals survived to 48 h (female FVB mice; iv) [mg/kg] | single-dose level at which all animals survived to 48 h (female FVB mice; po) [mg/kg] | survival (female FVB mice) | clinical observations (female FVB mice; two lower dose groups (10, 30 mg/kg), 14 days) |
| --- | --- | --- | --- | --- | --- | --- | --- | --- | --- | --- | --- | --- | --- | --- | --- | --- | --- | --- | --- |
| O=C(NC1CCCCC1)N(Cc1ccccc1)CC1CCNCC1 [SRI-011381, 1-Benzyl-3-cyclohexyl-1-(piperidin-4-ylmethyl)urea] | showed activity | activates TGF-β signaling in reporter cell line | penetrate into the CNS and activate TGF-β signaling; also recorded: bioavailable in the CNS and activate TGF-β signaling; also recorded: activates TGF-β signaling in the brain | activates TGF-β signaling in reporter mice | no significant differences relative to controls | significantly decreased | minor changes in WBCs only | reductions in red blood cells (RBCs), hematocrit and hemoglobin; also recorded: RBCs, hematocrit and hemoglobin were all significantly reduced; also recorded: significantly reduced hematocrit, hemoglobin, RBCs, and WBCs | hunched posture, hypoactivity and ruffled fur | increased | significantly elevated | no significant differences in body weight or body weight change | decreased | no significant changes in clinical chemistry | up to 100 mg/kg | ≤ 15 | ≤ 200 | survived to the scheduled sacrifice on Day 15 | appeared normal |
| O=C(NC1CCCCC1)N(C/C=C/c1ccc(F)cc1)CC1CCNCC1 [SRI-011382] | superior activity | – | bioavailable in the CNS and activate TGF-β signaling | – | – | – | reduced hematocrit, hemoglobin, RBCs, and WBCs | – | hunched posture, hypoactivity and ruffled fur | – | – | – | – | no significant changes | – | – | – | lethality to the entire treatment group | – |
